Test results reported in article PMC10975611, “Heterocycles 52: The Drug-Likeness Analysis of Anti-Inflammatory Thiazolo[3,2-b][1,2,4]triazole and Imidazo[2,1-b][1,3,4]thiadiazole Derivatives” (Pharmaceuticals, 2024).

Experiment: Lipophilicity by reversed-phase thin-layer chromatography (RP-TLC), isopropanol-water mobile phase
Type: physicochemical
Settings: for mRM (arithmetic mean of the experimental retention factors RM): RP-18F254s plates, isopropanol 70–90% in water; for RM0 (relative lipophilicity, RM extrapolated to pure water): Soczewinski Wachtmeister equation, isopropanol 70–90%; for PC1(RM): score of first principal component of RM values at isopropanol 70–90%; for b (slope): slope of RM versus isopropanol concentration; for φ0 (chromatographic hydrophobic index): φ0 = RM0/b; for lipophilicity (in words): chromatographic lipophilicity profile / lipophilicity descriptors
Method: Lipophilicity was assessed by RP-TLC, using RP-[…] standard silica gel plates (20 × 10 cm) as the stationary phase. An isopropanol:water binary mixture was used as the mobile phase, with different isopropanol concentrations 70%, 75%, 80%, 85%, 90% for thiazolo[3,2-b][1,2,4]triazole (1a–16a) and imidazo[2,1-b][1,3,4]thiadiazole (1b–16b) compounds.
The standard solutions (1 mg/mL) used to investigate the lipophilicity of the synthesized compounds were prepared in dichloromethane (1a–16a compounds) and dimethylsulfoxide (1b–16b compounds). From the obtained solutions, 2 µL was applied manually on the chromatographic plates, at 15 mm from the baseline and 5 mm from the edges of the plate at a spot distance of 12 mm. This procedure was repeated three times. The chromatographic plate upward elution was performed in a chromatographic chamber previously saturated for 30 min with mobile phase, at normal atmospheric pressure and room temperature. The migration distance of the eluent was 80 mm. The chromatographic plates were visually inspected under UV light at λ = 254 nm to identify the compounds. In order to minimize possible experimental errors, three measurements were performed for each mobile phase. The retention factors (Rf) were calculated as the average of three determinations in each case.
Based on the Rf values, a variety of parameters can be determined to estimate the lipophilicity of the compounds. The isocratic retention factor (RM) was determined using the Bate–Smith and Westall equation [34]:RM = log(1/Rf − 1) where Rf = x/y and x = the migration distance of the compound, and y = the migration distance of the solvent front.
There is usually a linear correlation between the RM values and the concentration of the organic component in the mobile phase. For a better estimation of lipophilicity, RM0 was determined as the extrapolated retention factor, considering pure water as the mobile phase (Soczewinski Wachtmeister equation):RM = RM0 + bC where b is the slope of the curve, which indicates the rate at which the solubility of the compound increases in the mobile phase, C is the concentration of the isopropanol in the mobile phase, and RM0 is the RM of the compound when the concentration of isopropanol is zero (extrapolated value).
To estimate the lipophilicity of the compounds, φ0, representing the chromatographic hydrophobicity index, was also determined. It corresponds to the percentage (by volume) of the organic component in the mobile phase and can be determined according to the following formula:φ0 = RM0/b
In order to assess the lipophilicity of compounds, other more relevant lipophilicity parameters have been used, such as the arithmetic mean of the experimental retention factors (mRM), and the score associated with the first principal component (PC1(RM)) obtained by applying principal component analysis (PCA) to the retention parameters RM [35, 36]. The determination of these parameters eliminates the errors that appear during the extrapolation procedure (when determining RM0) so that the results are more accurate.

SMILES	mRM (arithmetic mean of the experimental retention factors RM)	RM0 (relative lipophilicity, RM extrapolated to pure water)	PC1(RM)	b (slope)	φ0 (chromatographic hydrophobic index)	lipophilicity (in words)
NS(=O)(=O)c1ccc(-c2nn3cc(-c4ccc(Br)cc4)nc3s2)cc1 [Compound 14b]	−0.416	1.399	1.382	−0.023	62.17	–
FC(F)(F)c1ccc(-c2cn3nc(-c4ccc(Cl)cc4)sc3n2)cc1 [Compound 7b]	0.086	2.468	−0.414	−0.030	82.28	–
NS(=O)(=O)c1ccc(-c2nn3cc(-c4ccc(C(F)(F)F)cc4)nc3s2)cc1 [Compound 15b]	−0.504	1.725	1.693	−0.028	62.28	–
COc1ccc(-c2csc3nc(-c4ccc(Cl)cc4)nn23)cc1 [Compound 8a]	0.166	2.126	−0.701	−0.025	86.79	–
COc1ccc(-c2nc3scc(-c4ccc(C(F)(F)F)cc4)n3n2)cc1 [Compound 11a]	0.032	2.217	−0.226	−0.027	81.22	–
FC(F)(F)c1ccc(-c2csc3nc(-c4ccc(Cl)cc4)nn23)cc1 [Compound 7a]	0.186	2.648	−0.775	−0.031	85.99	–
NS(=O)(=O)c1ccc(-c2nc3scc(-c4ccc(C(F)(F)F)cc4)n3n2)cc1 [Compound 15a]	−0.504	1.534	1.694	−0.026	60.16	–
COc1ccc(-c2nn3cc(-c4ccc(Br)cc4)nc3s2)cc1 [Compound 10b]	0.222	1.990	−0.899	−0.022	90.04	high lipophilicity
Clc1ccc(-c2nc3scc(-c4ccccc4)n3n2)cc1 [Compound 5a]	0.178	2.131	−0.743	−0.024	87.32	–
Brc1ccc(-c2csc3nc(-c4ccccc4)nn23)cc1 [Compound 2a]	0.200	2.130	−0.821	−0.024	88.37	high lipophilicity
COc1ccc(-c2nc3scc(-c4ccc(Br)cc4)n3n2)cc1 [Compound 10a]	0.168	2.132	−0.711	−0.025	87.00	high lipophilicity
FC(F)(F)c1ccc(-c2csc3nc(-c4ccccc4)nn23)cc1 [Compound 3a]	0.065	2.229	−0.341	−0.027	82.54	–
COc1ccc(-c2nn3cc(-c4ccc(C(F)(F)F)cc4)nc3s2)cc1 [Compound 11b]	0.110	1.973	−0.498	−0.023	84.69	–
